According to the Deep4Chem optical property database:

Experiment: photoluminescence quantum yield (fraction); solvent given as SMILES

COc1cc2c(cc1-c1ccccc1)Cc1c3c(c4c(c1-2)-c1cc(OC)c(-c2ccccc2)cc1C4)C(=O)N(CCC(C)C)C3=O
photoluminescence quantum yield (in C1CCOC1): 0.53
photoluminescence quantum yield (in CC#N): 0.46
photoluminescence quantum yield (in CC(C)=O): 0.38
photoluminescence quantum yield (in CCOC(C)=O): 0.61
photoluminescence quantum yield (in CS(C)=O): 0.47
photoluminescence quantum yield (in Cc1ccccc1): 0.48
photoluminescence quantum yield (in ClC(Cl)Cl): 0.64
photoluminescence quantum yield (in ClCCl): 0.63

c1ccc(-c2nc(-c3ccccc3)nc(-c3cccc(-n4c5ccccc5c5c6oc7ccccc7c6ccc54)c3)n2)cc1
photoluminescence quantum yield (in O=P(c1ccccc1)(c1ccccc1)c1ccccc1Oc1ccccc1P(=O)(c1ccccc1)c1ccccc1): 0.311

CCCCCCCN1C(=CC2=C([O-])C(=CC3=[N+](CCCCCCC)c4ccccc4C3(C)C)C2=C(C#N)C#N)Sc2ccccc21
photoluminescence quantum yield (in C1COCCO1): 0.16
photoluminescence quantum yield (in CCO): 0.15
photoluminescence quantum yield (in CN(C)C=O): 0.16
photoluminescence quantum yield (in ClC(Cl)Cl): 0.17

Cc1c2c(c(C)c3ccccc13)-c1cc3nc4ccccc4nc3cc1-2
photoluminescence quantum yield (in ClC(Cl)Cl): 0.72

c1ccc2c(c1)oc1nc3oc4ccc(-n5c6ccccc6c6ccccc65)cc4c3cc12
photoluminescence quantum yield (in ClC(Cl)Cl): 0.074

COc1ccc(C2=C(c3ccc(C)cc3)C(c3ccccc3)=[N+]3C2=Nc2c(-c4ccc(OC)cc4)c(-c4ccc(C)cc4)c(-c4ccccc4)n2[B-]3(F)F)cc1
photoluminescence quantum yield (in Cc1ccccc1): 0.01

CCCn1c(=O)c(/C=C/c2nc3ccc(C)cc3n(CCC)c2=O)nc2ccc(C)cc21
photoluminescence quantum yield (in C1COCCO1): 0.2
photoluminescence quantum yield (in CC#N): 0.15
photoluminescence quantum yield (in ClCCl): 0.21

O=C1c2ccccc2-c2ccc(N3CCN(c4ccccc4)CC3)c3cccc1c23
photoluminescence quantum yield (in C1CCCCC1): 0.424
photoluminescence quantum yield (in C1CCOC1): 0.123
photoluminescence quantum yield (in C1COCCO1): 0.42
photoluminescence quantum yield (in CC1COC(=O)O1): 0.009
photoluminescence quantum yield (in CC#N): 0.005
photoluminescence quantum yield (in CC(C)=O): 0.011
photoluminescence quantum yield (in CCCCCCCCO): 0.018
photoluminescence quantum yield (in CCCCCO): 0.017
photoluminescence quantum yield (in CCCCO): 0.014
photoluminescence quantum yield (in CCCO): 0.021
photoluminescence quantum yield (in CCO): 0.007
photoluminescence quantum yield (in CCOC(C)=O): 0.108
photoluminescence quantum yield (in CN(C)C=O): 0.005
photoluminescence quantum yield (in CO): 0.004
photoluminescence quantum yield (in CS(C)=O): 0.004
photoluminescence quantum yield (in Cc1ccccc1): 0.431
photoluminescence quantum yield (in ClC(Cl)Cl): 0.348

c1ccc(-c2nc(-c3ccccc3)nc(-c3ccc(-n4c5ccc(-n6c7ccccc7c7ccccc76)cc5c5cc(-n6c7ccccc7c7ccccc76)ccc54)cc3)n2)cc1
photoluminescence quantum yield (in Cc1ccccc1): 0.57

CC(C)(C)c1cc2ccc3cc(C(C)(C)C)cc4c(N(c5ccccc5)c5ccccc5)cc(c1)c2c34
photoluminescence quantum yield (in CCCCCC): 0.24

COc1ccc2cc(-c3ccc([N+](=O)[O-])cc3)ccc2c1
photoluminescence quantum yield (in C1CCOC1): 0.006
photoluminescence quantum yield (in CC#N): 0.006
photoluminescence quantum yield (in ClC(Cl)Cl): 0.055
photoluminescence quantum yield (in ClCCl): 0.11

CC(=O)c1ccc(-c2cc(C)[o+]c(C)c2)cc1
photoluminescence quantum yield (in ClCCl): 0.03

CCOC(=O)/N=c1/oc2c(OC)cccc2cc1C#N
photoluminescence quantum yield (in ClCCl): 0.0034

F[B-]1(F)n2c(c(-c3ccccc3)c(-c3ccccc3)c2-c2ccccc2)C=C2C(c3ccccc3)=C(c3ccccc3)C(c3ccccc3)=[N+]21
photoluminescence quantum yield (in C1CCOC1): 0.96

CCCCCCC(CCCCCC)N1C(=O)c2cccc3c(-c4ccc(OC)c5ccccc45)ccc(c23)C1=O
photoluminescence quantum yield (in CCCCCC): 0.33
photoluminescence quantum yield (in CCCCCCCCCCCCCC): 0.34
photoluminescence quantum yield (in CCCCCCCCCCCO): 0.23
photoluminescence quantum yield (in CCCCO): 0.088
photoluminescence quantum yield (in CN(C)C=O): 0.13
photoluminescence quantum yield (in Cc1ccccc1): 0.18
photoluminescence quantum yield (in ClC(Cl)Cl): 0.39

CC1(C)c2ccccc2N(c2ccc(-c3nc([C@]45CC6CC(C[C@@H](C6)C4)C5)nc([C@]45C[C@H]6C[C@@H](C[C@H](C6)C4)C5)n3)cc2)c2ccccc21
photoluminescence quantum yield (in CC(C)(C)c1ccc(-n2c3ccc([Si](c4ccccc4)(c4ccccc4)c4ccccc4)cc3c3cc([Si](c4ccccc4)(c4ccccc4)c4ccccc4)ccc32)cc1): 0.83

c1ccc2cc3cc4c(cc3cc2c1)-c1cccc2cccc-4c12
photoluminescence quantum yield (in CCCCCCC): 0.58

C#CC1CN2CCC1CC2[C@@H](O)c1ccnc2ccc(OC)cc12 (stereo partly drawn)
photoluminescence quantum yield (in C1CCOC1): 0.063
photoluminescence quantum yield (in CC#N): 0.008
photoluminescence quantum yield (in CCCC#N): 0.032
photoluminescence quantum yield (in Cc1ccccc1): 0.023
photoluminescence quantum yield (in ClCCl): 0.033

CC/[NH+]=c1\cc2oc3cc(NCCN)c4ccccc4c3nc-2cc1C
photoluminescence quantum yield (in CCO): 0.27
photoluminescence quantum yield (in O): 0.18

CC1=CC(C)=[N+]2C1=Cc1c(C)c(C3=C(C)C4=Cc5c(C)cc(C)n5[B-](F)(F)[N+]4=C3C)c(C)n1[B-]2(F)F
photoluminescence quantum yield (in ClCCl): 0.66

C[Si](C)(C)O[Si]1(O[Si](C)(C)C)n2c3c4ccccc4c2/N=C2N=C(/N=c4/c5ccccc5/c(n41)=N/C1=NC(=N\3)/c3ccccc31)c1ccccc1\2
photoluminescence quantum yield (in CN(C)C=O): 0.42

CC1(C)c2ccccc2N(c2ccc(-c3cccc(C#N)c3)cc2)c2ccccc21
photoluminescence quantum yield (in Cc1ccccc1): 0.112
photoluminescence quantum yield (in N#Cc1ccc2c(c1)c1ccccc1n2-c1cccc(-n2c3ccccc3c3ccccc32)c1): 0.15

COC(=O)c1cc(=O)n(C)c2cc(-c3ccc(N(C)C)cc3)sc12
photoluminescence quantum yield (in CC#N): 0.08
photoluminescence quantum yield (in ClCCl): 0.82

CCCCC1(c2ccccc2)Nc2c(-c3ccc(N(C)c4ccccc4)cc3)ccc(-c3ccc(N(C)c4ccccc4)cc3)c2N=C1c1ccccc1 (stereo not drawn)
photoluminescence quantum yield (in ClC(Cl)Cl): 0.01

O=c1c2ccccc2n2c3ccccc3c(=O)c3cccc1c32
photoluminescence quantum yield (in c1cc(-n2c3ccccc3c3ccccc32)cc(-n2c3ccccc3c3ccccc32)c1): 0.724

Cc1cc(C)c(B(c2cc(-c3ccc(N(C)C)cc3)sc2-c2sc(-c3ccc(N(C)C)cc3)cc2P(=O)(c2ccccc2)c2ccccc2)c2c(C)cc(C)cc2C)c(C)c1
photoluminescence quantum yield (in CO): 0.18

COc1ccc(/C=C/c2nc3ccccc3o2)cc1
photoluminescence quantum yield (in C1CCCCC1): 0.006
photoluminescence quantum yield (in CO): 0.001

COC(=O)c1ccc(-c2cc3ccc4cccc5ccc(c2)c3c45)cc1
photoluminescence quantum yield (in Cc1ccccc1): 0.43

CC1(C)C(/C=C/C=C/C=C/C=C2/N(c3ccc(S(=O)(=O)[O-])cc3)c3ccc(S(=O)(=O)[O-])cc3C2(C)C)=[N+](c2ccc(S(=O)(=O)[O-])cc2)c2ccc(S(=O)(=O)[O-])cc21
photoluminescence quantum yield (in CO): 0.47
photoluminescence quantum yield (in O): 0.21

c1cnc(-c2c3ccccc3c(-c3cncnc3)c3ccccc23)nc1
photoluminescence quantum yield (in CCO): 0.61
photoluminescence quantum yield (in ClCCl): 0.78

c1ccc2c(c1)Sc1ccccc1N2c1ccc2c(ccc3nc4ccc5cc(N6c7ccccc7Sc7ccccc76)ccc5c4nc32)c1
photoluminescence quantum yield (in C1CCCCC1): 0.06
photoluminescence quantum yield (in Cc1ccccc1): 0.07

CCCCCCCCN1c2ccc(C#Cc3cc(C(F)(F)F)cc(C(F)(F)F)c3)cc2Sc2cc(C=O)ccc21
photoluminescence quantum yield (in C1CCOC1): 0.53
photoluminescence quantum yield (in CC#N): 0.53
photoluminescence quantum yield (in CCCCCC): 0.6
photoluminescence quantum yield (in CO): 0.11
photoluminescence quantum yield (in CS(C)=O): 0.77
photoluminescence quantum yield (in Cc1ccccc1): 0.67
photoluminescence quantum yield (in ClC(Cl)Cl): 0.63

COC(=O)[C@H](Cc1ccccc1)Nc1c(C(C)=O)c(=O)oc2cc(N(C)C)ccc12
photoluminescence quantum yield (in ClCCl): 0.0043

CC(C)[Si](C#Cc1c2nsnc2c(C#C[Si](C(C)C)(C(C)C)C(C)C)c2nc3c(nc12)C1c2ccccc2C3c2ccccc21)(C(C)C)C(C)C
photoluminescence quantum yield (in CCCCCC): 0.66

c1ccc2c(-n3c4ccccc4c4ccccc43)cccc2c1
photoluminescence quantum yield (in C1CCCCC1): 0.54
photoluminescence quantum yield (in CCOC(C)=O): 0.51
photoluminescence quantum yield (in CO): 0.36

N#Cc1nc(N(Cc2ccc(F)cc2)Cc2ccc(F)cc2)c(C#N)nc1N(Cc1ccc(F)cc1)Cc1ccc(F)cc1
photoluminescence quantum yield (in ClC(Cl)Cl): 0.76

Cc1cc(-c2ccc(-c3ccccc3)cc2)cc(C)[o+]1
photoluminescence quantum yield (in ClCCl): 0.78

CN1CCCc2cc(C3=Cc4cccc[n+]4[B-](F)(F)O3)ccc21
photoluminescence quantum yield (in ClC(Cl)Cl): 0.55

C#CCn1c2ccccc2c2cc(/C=C/c3c(Cl)c(C)c4n3[B-](F)(F)[N+]3=C(C)C(Cl)=C(C)C3=C4c3ccc(I)cc3)ccc21
photoluminescence quantum yield (in CC#N): 0.43
photoluminescence quantum yield (in CS(C)=O): 0.33
photoluminescence quantum yield (in ClC(Cl)Cl): 0.62

CCCCCCCCCCCCOc1cc2c(cc1OCCCCCCCCCCCC)C1=C3C(=O)N4C=Cc5cc(OCCCCCCCCCCCC)c(OCCCCCCCCCCCC)cc5C4=C3C(=O)N1C=C2
photoluminescence quantum yield (in CN(C)C=O): 0.7
photoluminescence quantum yield (in ClC(Cl)Cl): 0.8

c1ccc(-c2cc(-c3ccc(-c4nc(-c5ccccn5)c(-c5ccccn5)[nH]4)cc3)cc(-c3ccccn3)n2)nc1
photoluminescence quantum yield (in C1CCOC1): 0.06
photoluminescence quantum yield (in CC#N): 0.08
photoluminescence quantum yield (in CC(C)=O): 0.201
photoluminescence quantum yield (in CCCCCC): 0.006
photoluminescence quantum yield (in CCO): 0.202
photoluminescence quantum yield (in CCOC(C)=O): 0.153
photoluminescence quantum yield (in CN(C)C=O): 0.135
photoluminescence quantum yield (in CO): 0.078
photoluminescence quantum yield (in CS(C)=O): 0.111
photoluminescence quantum yield (in ClC(Cl)Cl): 0.13
photoluminescence quantum yield (in ClCCl): 0.145
photoluminescence quantum yield (in O): 0.045

COc1ccc(-c2nc3ccccc3oc2=O)cc1
photoluminescence quantum yield (in c1ccccc1): 0.076

F[B-]1(F)n2c(Cl)ccc2C(c2c(Cl)cccc2Cl)=C2C=CC(NCc3ccccc3)=[N+]21
photoluminescence quantum yield (in CC#N): 0.76
photoluminescence quantum yield (in CCCCCC): 0.82
photoluminescence quantum yield (in CCOC(C)=O): 0.67
photoluminescence quantum yield (in CO): 0.72
photoluminescence quantum yield (in ClCCl): 0.8

Cn1nc(-c2ccccc2)cc1-c1ccccc1
photoluminescence quantum yield (in ClCCl): 0.42

FC(F)(F)c1cc2n(n1)[B-](c1ccccc1)(c1ccccc1)[n+]1ccc3ccccc3c1-2
photoluminescence quantum yield (in C1CCCCC1): 0.999
photoluminescence quantum yield (in Cc1ccccc1): 0.712
photoluminescence quantum yield (in ClCCl): 0.778

COc1ccc2cc(/C=C/C3=CC(c4ccccc4)=[O+][B-](F)(F)O3)ccc2c1
photoluminescence quantum yield (in ClCCl): 0.43

CC[N+]1=C(/C=C/c2c(C)nn3c(-c4ccc(OC)cc4)ccnc23)C(C)(C)c2ccccc21
photoluminescence quantum yield (in CCO): 0.37
photoluminescence quantum yield (in ClCCl): 0.13
photoluminescence quantum yield (in O): 0.42

CC1=C(c2ccccc2)C2=Cc3c(-c4ccccc4)c(C)c(C)n3[B-](F)(F)[N+]2=C1C
photoluminescence quantum yield (in CC#N): 0.93

Cc1cc(N(C)C)ccc1C1=C2C=CC(=[N+](C)C)C=C2[Si](C)(C)c2cc(N(C)C)ccc21
photoluminescence quantum yield (in O): 0.001

COc1cc2c(cc1OC)C1=C[C@H](c3ccc(C)cc3)C3(C(C#N)=C(C#N)N1CC2)c1cc(Br)ccc1-c1ccc(Br)cc13
photoluminescence quantum yield (in ClCCl): 0.00023
